Experimental data taken from patent US20240174690A1, “ANNULATED 2-AMINO-3-CYANO THIOPHENES AND DERIVATIVES FOR THE TREATMENT OF CANCER” (BOEHRINGER INGELHEIM INTERNATIONAL GMBH, priority 2021, published 2024).

Experiments:
[1] = tested on: GP2D cells; assay: GP2D proliferation assay (120 h) (colorectal cancer, G12D); type: cell-based
How it was run: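 500 cells/well in DMEM + GlutaMAX + 10% FCS, exposed to a logarithmic compound dose series (DMSO-normalized) for 120 h. Viability read by CellTiter-Glo luminescence as percent of DMSO control, with an untreated T0 read at dosing; IC50 from four-parameter non-linear regression.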

[2] = tested on: A375 cells; assay: A375 CTG proliferation assay (120 h) (melanoma, wt, B-Raf mutant, negative control); type: cell-based; settings: Homo sapiens, A-375, CTG 120 h
How it was run: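 Cells seeded at 300/well in DMEM + 10% FCS, dosed next day with a logarithmic dilution series and incubated 120 h at 37 °C. Viability read by CellTiter-Glo luminescence as percent of DMSO control; IC50 from four-parameter nonlinear regression.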

[3] = biological target: KRAS (G12V)::SOS1 (Homo sapiens (Human), UniProt P01116, C118S/G12V); assay: KRAS::SOS1 AlphaScreen binding assay, KRAS G12V
KRAS (G12V)::SOS1, sequence (P01116 other isoform, or with tags, fused parts or gaps G12V/C118S): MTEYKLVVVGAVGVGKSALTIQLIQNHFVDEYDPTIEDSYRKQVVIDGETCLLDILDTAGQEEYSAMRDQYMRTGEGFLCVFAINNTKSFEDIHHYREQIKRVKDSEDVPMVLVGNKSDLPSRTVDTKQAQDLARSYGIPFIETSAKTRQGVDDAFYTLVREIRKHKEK
How it was run: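 Compounds (up to 100 μM, eleven fivefold dilutions in duplicate) were incubated 30 min with KRAS 1-169 (10 nM, or 7.5 nM for G12C), GST-SOS1 564-1049 (5 nM for G12D/G12C, 10 nM for others) and 10 μM GDP in PBS buffer with BSA and Tween. Donor/acceptor beads were then added for 60 min at room temperature, and IC50 came from a 4-parameter fit of the AlphaScreen signal.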

[4] = biological target: KRAS (G13D)::SOS1 (Homo sapiens (Human), UniProt P01116, C118S/G13D); assay: KRAS::SOS1 AlphaScreen binding assay, KRAS G13D
KRAS (G13D)::SOS1, sequence (P01116 other isoform, or with tags, fused parts or gaps G13D/C118S): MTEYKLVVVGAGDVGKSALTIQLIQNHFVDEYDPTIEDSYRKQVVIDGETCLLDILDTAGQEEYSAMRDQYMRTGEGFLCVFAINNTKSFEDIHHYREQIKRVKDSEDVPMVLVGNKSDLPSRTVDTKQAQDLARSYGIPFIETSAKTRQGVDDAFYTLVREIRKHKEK
How it was run: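 AlphaScreen measurement of compound disruption of biotinylated, GDP-loaded KRAS 1-169 (10 nM; G12C 7.5 nM) binding to GST-SOS1 564-1049 (5 nM with G12D/G12C, 10 nM otherwise), with 10 μM GDP in PBS/0.1% BSA/0.05% Tween 20. Timing was 30 min compound preincubation, then 60 min with beads at room temperature; top concentration 100 μM, 4-parameter IC50.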

**Q.** With `C[C@H](Oc1cc(-c2ccn(C)n2)nc(-c2noc3c2CCC[C@@]32CCCc3sc(N)c(C#N)c32)n1)[C@@H]1C[C@@H](F)CN1C` [II-27] as the compound, how does the IC50 [1] read?
**A.** 408 nM

**Q.** And the IC50 [2]?
**A.** > 3000 nM

**Q.** `C[C@H](Oc1cc(-n2ccc(C(N)=O)n2)nc(-c2noc3c2CCC[C@@]32CCCc3sc(N)c(C#N)c32)n1)[C@@H]1CCCN1C` [II-21] was tested. Which IC50 [3] did it give?
**A.** 1 nM

**Q.** And the IC50 [1]?
**A.** 57 nM

**Q.** And the IC50 [2]?
**A.** > 3000 nM

**Q.** And the IC50 [4]?
**A.** 12 nM

**Q.** How did the IC50 [1] turn out when `C[C@H](Oc1cc(-n2ccc(C(=O)N3CCCC3)n2)nc(-c2noc3c2CCC[C@@]32CCCc3sc(N)c(C#N)c32)n1)[C@@H]1CCCN1C` [II-19] was run?
**A.** 136 nM

**Q.** And the IC50 [2]?
**A.** 1120 nM

**Q.** And the IC50 [4]?
**A.** 9 nM

**Q.** Which IC50 [1] does the source give for `C[C@H](Oc1cc([C@@H]2CCOC2)nc(-c2onc3c2CCC[C@@]32CCCc3sc(N)c(C#N)c32)n1)[C@@H]1CCCN1C` [I-22] here?
**A.** 27 nM

**Q.** And the IC50 [2]?
**A.** > 3000 nM

**Q.** How did the IC50 [3] turn out when `CNC(=O)c1ccn(-c2cc(O[C@@H](C)[C@@H]3CCCN3C)nc(-c3noc4c3CCC[C@@]43CCCc4sc(N)c(C#N)c43)n2)n1` [II-20] was run?
**A.** 2 nM

**Q.** What about the IC50 [1] of the same compound?
**A.** 57 nM

**Q.** And the IC50 [2]?
**A.** > 3000 nM
